Experimental data from US20140357512A1, “HISTONE DEACETYLASE (HDAC) BIOMARKERS IN MULTIPLE MYELOMA” (priority 2013, published 2014).

Test system: human myeloma cell line MM.1S
Assay: SILAC acetylated-lysine peptide profiling, HDAC inhibitor vs DMSO (light/heavy ratio)
Type: cell-based
From the text: An embodiment of the invention comprises utilizing the SILAC method in order to quantitate changes in protein expression between two or more populations of cells. The SILAC method is a technique based on mass spectrometry that detects differences in protein abundance among samples using non-radioactive isotopic labeling. The SILAC method is known in the art, and described in detail in Ong et al., “Stable Isotope Labeling by Amino Acids in Cell Culture, SILAC, as a Simple and Accurate Approach to Expression Proteomics”, Molecular & Cellular Proteomics, vol. 1, pp. 376-386 (2002), which is incorporated herein by reference in its entirety.
Briefly, the SILAC method involves growing two populations of cells in cell culture. The first population of cells is grown in growth media containing normal amino acids (“normal media”). The second population of cells is grown in media lacking a standard essential amino acid (such as lysine), but is then supplemented with a non-radioactive, isotopically labeled form of that essential amino acid (such as lysine labeled with ^13C atoms, rather than normal ^12C atoms), which is called “heavy media”. When the two populations of cells are each growing in the medium, they incorporate the amino acids into all of their proteins. The growth of cells maintained in the heavy media is no different from that in normal media. All peptides containing the heavy amino acids are heavier than their normal counterparts. The cells from each of the two populations of cells are lysed. The lysates from each of the two cell populations are then combined. The combined cell lysates are then analyzed by mass spectrometry. Pairs of chemically identical peptides of different stable isotope composition can be differentiated in a mass spectrometer due to their difference in mass. The ratio of peak intensities in the mass spectrum for such peptide pairs reflects the abundance ratio for the two proteins.
This example describes SILAC studies that were performed to compare the effects of three different HDAC inhibitors (Compound A, Compound B, and tubastatin A) to a control on a human multiple myeloma cell line. The HDAC inhibitors were also compared amongst themselves to determine differences in their effects.
A human myeloma cell line MM.1S was grown using either ^12C (light) or ^13C (heavy) lysine containing culture medium. The “heavy” cells were treated with DMSO as the control, and the “light” cells were treated with a single HDAC inhibitor at 37° C. for 6 hours. The heavy and light cells were lysed, and the lysates were mixed in 1:1 ratio and digested with the protease trypsin. The acetylated lysine containing peptides (due to the action of the HDAC inhibitor) in the digested peptide pool were captured by a non-specific anti-acetylated lysine antibody cocktail (the antibodies identify both light and heavy acetylated peptides), and subjected to mass spectrometry analysis in order to identify thousands of individual peptides.
Thousands of peptides were identified in pairs (^12C and ^13C) due to their known mass differences. The amino acid sequence and quantitative ratio (Light/Heavy) of a given peptide in two differentially treated cell lysates were then determined and annotated with their possible protein (gene) sources.
As stated above, three HDAC inhibitors (Compound A, Compound B, and Tubastatin A) were used. Thus, the SILAC method was performed three times, with a different HDAC inhibitor compared to a control each time. Accordingly, there are three pairs of quantitative data in the table below, i.e., Compound A:DMSO, Compound B:DMSO, and Tubastatin A:DMSO. A cut-off of 1.30 fold of change (increase or decrease) was then used to determine “changed” or “+” in the table, and any peptides with a fold of change less than 1.3 fold were determined to be “unchanged” or “0” in the table. Those peptides that were not identified were marked as “NA” in the table. […]

## O=C(NO)c1cnc(NC2(c3cccc(F)c3)CCCCC2)nc1 [Compound B, 2-((1-(3-fluorophenyl)cyclohexyl)amino)-N-hydroxypyrimidine-5-carboxamide]
DDX17 [132], log 2 scale, drug vs DMSO
  L/H ratio of acetylated peptide FEK(ac)[…] (SEQ ID NO: 32): 0.00
DK(ac)WLCPLSGK (SEQ ID NO: 452), Isoform 2 of Serrate RNA effector molecule homolog [712], SRRT
  L/H ratio of acetylated peptide: 0.42 log 2
DK(ac)[…] (SEQ ID NO: 456), F-box-like/WD repeat-containing protein TBL1XR1 [102], TBL1XR1
  L/H ratio of acetylated peptide: 0.86 log 2
DLAT [466], log 2 scale, drug vs DMSO
  L/H ratio of acetylated peptide ELNK(ac)ILEGR (SEQ ID NO: 2): 0.47
DLEK(ac)WQNNLLPSR (SEQ ID NO: 211), 40S ribosomal protein 515a [88], RPS15A
  light to heavy ratio (L/H ratio) of acetylated peptide, log 2 scale: 0.00
DLMTDLK(ac)SEISGDLAR (SEQ ID NO: 129), Annexin A6 [418], ANXA6
  light to heavy ratio (L/H ratio) of acetylated peptide, log 2 scale: 0.00
DNA topoisomerase 1 [642], TOP1, drug:DMSO
  light to heavy ratio (L/H ratio) of acetylated peptide TFEK(ac)SMMNLQTK (SEQ ID NO: 354): 0.46 log 2
DNAJB11 [247], log 2 scale, drug vs DMSO
  L/H ratio of acetylated peptide VVK(ac)HPIFER (SEQ ID NO: 35): 0.00
DVFNK(ac)GYGFGMVK (SEQ ID NO: 467), Isoform 1 of Voltage-dependent anion-selective channel protein 3 [20], VDAC3
  L/H ratio of acetylated peptide: −0.73 log 2
DVK(ac)FGADAR (SEQ ID NO: 173), 60 kDa heat shock protein mitochondrial [31], HSPD1
  light to heavy ratio (L/H ratio) of acetylated peptide, log 2 scale: 0.00
DVTK(ac)AMDEK (SEQ ID NO: 426), Isoform 2 of 6-phosphofructokinase muscle type [329], PFKM
  L/H ratio of acetylated peptide: 0.53 log 2
DYNC1H1 [4283], log 2 scale, drug vs DMSO
  L/H ratio of acetylated peptide SFDSEFK(ac)LACK (SEQ ID NO: 8): 0.51
Dolichyl-diphosphooligosaccharide--protein glycosyltransferase subunit 1 precursor [626], RPN1, drug:DMSO
  light to heavy ratio (L/H ratio) of acetylated peptide DTYIENEK(ac)LISGK (SEQ ID NO: 352): 0.77 log 2
Dynein light chain 1 cytoplasmic [36], gene DYNLL1, inhibitor:DMSO
  light to heavy ratio (L/H ratio) of acetylated peptide YNIEK(ac)DIAAHIK (SEQ ID NO: 553): 0.00 log 2
Dynein light chain 2 cytoplasmic [36], DYNLL2, drug:DMSO
  light to heavy ratio (L/H ratio) of acetylated peptide YNIEK(ac)DIAAYIK (SEQ ID NO: 331): −0.45 log 2
EFTK(ac)LEEVLTNK (SEQ ID NO: 400), Glutathione S-transferase omega-1 [152], GSTO1
  L/H ratio of acetylated peptide: −0.60 log 2
EP300 [1558:1560], log 2 scale, drug vs DMSO
  L/H ratio of acetylated peptide TSK(ac)NK(ac)SSLSR (SEQ ID NO: 14): 0.43
ESESVDK(ac)VMDQK (SEQ ID NO: 404), Isoform 1 of Heterogeneous nuclear ribonucleoprotein D0 [153], HNRNPD
  L/H ratio of acetylated peptide: −0.53 log 2
EVHK(ac)[…] (SEQ ID NO: 181), Isoform 1 of L-lactate dehydrogenase A chain [232], LDHA
  light to heavy ratio (L/H ratio) of acetylated peptide, log 2 scale: 0.00
EVQTNDLK(ac)EVVNK (SEQ ID NO: 223), 40S ribosomal protein S3a [182], SNORD73A, RPS3A
  light to heavy ratio (L/H ratio) of acetylated peptide, log 2 scale: 0.00
Elongation factor 2 [638], EEF2, drug:DMSO
  light to heavy ratio (L/H ratio) of acetylated peptide YLAEK(ac)YEWDVAEAR (SEQ ID NO: 332): −0.40 log 2
Elongation factor G 2 mitochondrial precursor [265], gene GFM2, inhibitor:DMSO
  light to heavy ratio (L/H ratio) of acetylated peptide TFK(ac)GVVDVVMK (SEQ ID NO: 550): 0.00 log 2
Endoplasmin [410], HSP90B1, drug:DMSO
  light to heavy ratio (L/H ratio) of acetylated peptide KSDYIK(ac)LYVR (SEQ ID NO: 315): 0.00 log 2
Endoplasmin[ 142], HSP90B1, drug:DMSO
  light to heavy ratio (L/H ratio) of acetylated peptide EK(ac)[…] (SEQ ID NO: 314): 0.00 log 2
Endoplasmin[ 356], HSP90B1, drug:DMSO
  light to heavy ratio (L/H ratio) of acetylated peptide EVEEDEYK(ac)AFYK (SEQ ID NO: 261): 0.00 log 2
Eukaryotic translation initiation factor 2 subunit 3 [312], EIF2S3, drug:DMSO
  light to heavy ratio (L/H ratio) of acetylated peptide LMCK(ac)PIFSK (SEQ ID NO: 335): 0.49 log 2
Eukaryotic translation initiation factor 3 subunit A [68], gene EIF3A, inhibitor:DMSO
  light to heavy ratio (L/H ratio) of acetylated peptide SHLAK(ac)EGLYQYK (SEQ ID NO: 533): 0.00 log 2
FAFK(ac)EVEVQAK (SEQ ID NO: 397), Putative rRNA methyltransferase 3 [218], FTSJ3
  L/H ratio of acetylated peptide: 0.74 log 2
FEDENFHYK(ac)HDR (SEQ ID NO: 431), Peptidyl-prolyl cis-trans isomerase D [111], PPID
  L/H ratio of acetylated peptide: 0.46 log 2
FGIAAK(ac)YMLDCR (SEQ ID NO: 468), Isoform 1 of Voltage-dependent anion-selective channel protein 3 [224], VDAC3
  L/H ratio of acetylated peptide: 0.43 log 2
FK(ac)ECLDK (SEQ ID NO: 420), Isoform 2 of N-alpha-acetyltransferase 15 NatA auxiliary subunit [307], NAA15
  L/H ratio of acetylated peptide: 0.60 log 2
FLEQQNK(ac)[…] (SEQ ID NO: 241), Vimentin [129], VIM
  light to heavy ratio (L/H ratio) of acetylated peptide, log 2 scale: 0.00
